Source: PubChem BioAssay AID248 (DTP/NCI, 2004)
Toxic doses and inconclusive results are not listed. Rule as the data show it: active = T/C of 150% or more; inactive = T/C below 125%.

Tested on: L1210 leukemia ip in BDF1 mice, survival T/C
Assay: NCI In Vivo Anticancer Drug Screen. Data for tumor model L1210 Leukemia (intraperitoneal) in B6D2F1 (BDF1) mice
Conditions: endpoint: mean survival time, higher = longer survival
In short: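 Survival endpoint. Drug-treated group vs vehicle group, expressed as T divided by C. Tumor passaged by transplantation.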

[1] = dose: 75.0 mg/kg/injection, schedule: Q01DX001 (ip), vehicle: saline
[2] = dose: 100.0 mg/kg/injection, schedule: Q04DX002 (ip), vehicle: saline with Tween-80
[3] = dose: 200.0 mg/kg/injection, schedule: Q04DX002 (ip), vehicle: saline with Tween-80
[4] = dose: 400.0 mg/kg/injection, schedule: Q04DX002 (ip), vehicle: saline with Tween-80
[5] = dose: 50.0 mg/kg/injection, schedule: Q01DX001 (ip), vehicle: saline
[6] = dose: 100.0 mg/kg/injection, schedule: Q01DX001 (ip), vehicle: saline
[7] = dose: 200.0 mg/kg/injection, schedule: Q01DX001 (ip), vehicle: saline
[8] = dose: 400.0 mg/kg/injection, schedule: Q01DX001 (ip), vehicle: saline
[9] = dose: 100.0 mg/kg/injection, schedule: Q01DX009 (ip), vehicle: saline
[10] = dose: 200.0 mg/kg/injection, schedule: Q01DX009 (ip), vehicle: saline
[11] = dose: 400.0 mg/kg/injection, schedule: Q01DX009 (ip), vehicle: saline
[12] = dose: 100.0 mg/kg/injection, schedule: Q01DX001 (ip), vehicle: saline with Tween-80
[13] = dose: 200.0 mg/kg/injection, schedule: Q01DX001 (ip), vehicle: saline with Tween-80
[14] = dose: 400.0 mg/kg/injection, schedule: Q01DX001 (ip), vehicle: saline with Tween-80
[15] = dose: 50.0 mg/kg/injection, schedule: Q01DX001 (ip), vehicle: carboxymethylcellulose (CMC)
[16] = dose: 100.0 mg/kg/injection, schedule: Q01DX001 (ip), vehicle: carboxymethylcellulose (CMC)
[17] = dose: 200.0 mg/kg/injection, schedule: Q01DX001 (ip), vehicle: carboxymethylcellulose (CMC)
[18] = dose: 400.0 mg/kg/injection, schedule: Q01DX001 (ip), vehicle: carboxymethylcellulose (CMC)
[19] = dose: 100.0 mg/kg/injection, schedule: Q01DX009 (ip), vehicle: Klucel (hydroxypropylcellulose) (HPC)
[20] = dose: 200.0 mg/kg/injection, schedule: Q01DX009 (ip), vehicle: Klucel (hydroxypropylcellulose) (HPC)
[21] = dose: 400.0 mg/kg/injection, schedule: Q01DX009 (ip), vehicle: Klucel (hydroxypropylcellulose) (HPC)
[22] = dose: 100.0 mg/kg/injection, schedule: Q04DX003 (ip), vehicle: Klucel (hydroxypropylcellulose) (HPC)
[23] = dose: 200.0 mg/kg/injection, schedule: Q04DX003 (ip), vehicle: Klucel (hydroxypropylcellulose) (HPC)
[24] = dose: 400.0 mg/kg/injection, schedule: Q04DX003 (ip), vehicle: Klucel (hydroxypropylcellulose) (HPC)

Measured: T/C

COc1ccc2c(c1O)C13C=C(C)C(=O)CC1C(C2)N(C)CC3 (stereo not drawn)
inactive: [1] 106 % of control

O=C(O)c1cc(N=Nc2ncn[nH]2)ccc1O
inactive: dose: 87.5 mg/kg/injection, schedule: Q04DX003 (ip), vehicle: Klucel (hydroxypropylcellulose) (HPC) 96 % of control | dose: 175.0 mg/kg/injection, schedule: Q04DX003 (ip), vehicle: Klucel (hydroxypropylcellulose) (HPC) 97 % of control | dose: 350.0 mg/kg/injection, schedule: Q04DX003 (ip), vehicle: Klucel (hydroxypropylcellulose) (HPC) 100 % of control

C1CCC2C(C1)CC1CCCCC12 (stereo not drawn)
inactive: [2] 101 % of control | [3] 105 % of control | [4] 101 % of control

C1=C(c2ccccc2)c2ccccc2CC1
inactive: [5] 96 % of control | [6] 102 % of control | [7] 106 % of control

Nc1nc(N)c(N=Nc2ccc(S(=O)(=O)Nc3ccccn3)cc2)c(N)n1
inactive: [6] 101 % of control | [7] 95 % of control

O=[N+]([O-])c1ccc2cccnc2c1
inactive: dose: 75.0 mg/kg/injection, schedule: Q01DX001 (ip), vehicle: carboxymethylcellulose (CMC) 106 % of control | dose: 150.0 mg/kg/injection, schedule: Q01DX001 (ip), vehicle: carboxymethylcellulose (CMC) 104 % of control | dose: 300.0 mg/kg/injection, schedule: Q01DX001 (ip), vehicle: carboxymethylcellulose (CMC) 101 % of control

CCN(CC)CCOC(=O)c1[nH]cnc1/N=N/N(C)C1CCCCC1
inactive: dose: 100.0 mg/kg/injection, schedule: Q01DX001 (ip), vehicle: other 104 % of control | dose: 200.0 mg/kg/injection, schedule: Q01DX001 (ip), vehicle: other 93 % of control

O=C(O)c1c(O)c2cc(Br)ccc2oc1=O
inactive: [6] 98 % of control | [7] 98 % of control | [8] 102 % of control

CCOC(=O)Nc1ccc(SC)cc1
inactive: [9] 94 % of control | [10] 100 % of control | [11] 103 % of control

O=Nn1cc(-c2cc3ccccc3n2N=O)c2ccccc21
inactive: [5] 102 % of control | [6] 93 % of control | [7] 96 % of control | [8] 96 % of control

CC#CCOCC(O)CCl (stereo not drawn)
inactive: [9] 94 % of control | dose: 100.0 mg/kg/injection, schedule: Q04DX003 (ip), vehicle: saline sonified 108 % of control | [10] 91 % of control | dose: 200.0 mg/kg/injection, schedule: Q04DX003 (ip), vehicle: saline sonified 103 % of control | [11] 105 % of control | dose: 400.0 mg/kg/injection, schedule: Q04DX003 (ip), vehicle: saline sonified 117 % of control

Nc1ncnc(N)c1NC(=O)c1ccc(OCCc2ccccc2)c(Cl)c1
inactive: [12] 106 % of control | [13] 96 % of control | [14] 102 % of control

O=S1(=O)CC2(N3CCOCC3)CCCCC21 (stereo not drawn)
inactive: [15] 98 % of control | [16] 104 % of control | [17] 98 % of control

O=c1cc(C2CCCCC2)[nH]c(=S)[nH]1
inactive: [15] 101 % of control | [16] 92 % of control | [17] 86 % of control | [18] 90 % of control

CSC1=[N+](C)CCS1
inactive: [1] 106 % of control | dose: 75.0 mg/kg/injection, schedule: Q04DX003 (ip), vehicle: saline with Tween-80 109 % of control | dose: 87.5 mg/kg/injection, schedule: Q01DX009 (ip), vehicle: saline 98 % of control | dose: 150.0 mg/kg/injection, schedule: Q01DX001 (ip), vehicle: saline 107 % of control | dose: 150.0 mg/kg/injection, schedule: Q04DX003 (ip), vehicle: saline with Tween-80 101 % of control | dose: 175.0 mg/kg/injection, schedule: Q01DX009 (ip), vehicle: saline 100 % of control

Nc1ccc(Cc2ccc(Cl)cc2)cc1
inactive: dose: 75.0 mg/kg/injection, schedule: Q01DX001 (ip), vehicle: acetone 94 % of control | dose: 150.0 mg/kg/injection, schedule: Q01DX001 (ip), vehicle: acetone 94 % of control | dose: 300.0 mg/kg/injection, schedule: Q01DX001 (ip), vehicle: acetone 91 % of control

C1CCC(C2CCCC2)C1
inactive: [2] 100 % of control | [3] 89 % of control | [4] 110 % of control

CCCN=Cc1cnc(C#N)c(N)n1
inactive: dose: 100.0 mg/kg/injection, schedule: Q04DX002 (ip), vehicle: Klucel (hydroxypropylcellulose) (HPC) 97 % of control | dose: 200.0 mg/kg/injection, schedule: Q04DX002 (ip), vehicle: Klucel (hydroxypropylcellulose) (HPC) 94 % of control | dose: 400.0 mg/kg/injection, schedule: Q04DX002 (ip), vehicle: Klucel (hydroxypropylcellulose) (HPC) 97 % of control

O=C1CC(Nc2ccccc2)C(=O)N1c1cccc2ccccc12 (stereo not drawn)
inactive: [19] 102 % of control | [20] 96 % of control | [21] 91 % of control

C[Si](C)(C)OCCCCCCCl
inactive: [15] 108 % of control | [16] 101 % of control | [17] 95 % of control | [18] 103 % of control

CCCNC(C)=O
inactive: [9] 102 % of control | [10] 101 % of control | [11] 91 % of control

OCCOc1ccccc1
inactive: [2] 100 % of control | [3] 95 % of control | [4] 91 % of control

CN(C)/C=N/N1CCN(C)CC1
inactive: dose: 100.0 mg/kg/injection, schedule: Q04DX002 (ip), vehicle: saline 115 % of control | dose: 200.0 mg/kg/injection, schedule: Q04DX002 (ip), vehicle: saline 101 % of control | dose: 400.0 mg/kg/injection, schedule: Q04DX002 (ip), vehicle: saline 97 % of control

CCOS(C)(=O)=O
inactive: dose: 50.0 mg/kg/injection, schedule: Q01DX009 (ip), vehicle: saline 98 % of control | [9] 101 % of control | dose: 100.0 mg/kg/injection, schedule: Q04DX003 (ip), vehicle: alcohol 102 % of control | [10] 104 % of control | dose: 200.0 mg/kg/injection, schedule: Q04DX003 (ip), vehicle: alcohol 102 % of control

NC(N)=N/N=C/c1ccc(O)c(S(=O)(=O)O)c1
inactive: dose: 15.0 mg/kg/injection, schedule: Q01DX Z (ip), vehicle: saline 97 % of control | dose: 30.0 mg/kg/injection, schedule: Q01DX Z (ip), vehicle: saline 90 % of control | dose: 60.0 mg/kg/injection, schedule: Q01DX Z (ip), vehicle: saline 87 % of control | dose: 60.0 mg/kg/injection, schedule: Q01DX Z (oral), vehicle: saline 97 % of control | dose: 120.0 mg/kg/injection, schedule: Q01DX Z (ip), vehicle: saline 90 % of control | dose: 120.0 mg/kg/injection, schedule: Q01DX Z (oral), vehicle: saline 104 % of control | dose: 240.0 mg/kg/injection, schedule: Q01DX Z (oral), vehicle: saline 95 % of control | dose: 480.0 mg/kg/injection, schedule: Q01DX Z (ip), vehicle: saline 90 % of control | dose: 480.0 mg/kg/injection, schedule: Q01DX Z (oral), vehicle: saline 95 % of control

CC(=O)NN(c1ccccc1)c1ccccc1
inactive: dose: 50.0 mg/kg/injection, schedule: Q01DX009 (ip), vehicle: Klucel (hydroxypropylcellulose) (HPC) 98 % of control | [19] 104 % of control | [22] 93 % of control | [20] 96 % of control | [23] 86 % of control | [24] 91 % of control

CC(=O)[C@H]1[C@H](C)C[C@H]2[C@@H]3CCC4=CC(=O)CC[C@]4(C)[C@@]3(F)[C@@H](O)C[C@@]21C
inactive: [19] 103 % of control | [22] 100 % of control | [20] 101 % of control | [23] 97 % of control | [21] 97 % of control | [24] 101 % of control

CC(C)CCCC(C)C1CCC2C3CCC(CCO)C(C)(CCO)C3CCC12C (stereo not drawn)
inactive: [12] 97 % of control | [13] 92 % of control | [14] 94 % of control
